Laboratory results reported in ChEMBL document CHEMBL1141240, “N-8-Substituted benztropinamine analogs as selective dopamine transporter ligands” (Bioorg Med Chem Lett, 2005).

Key:
[1] = target: Sodium-dependent noradrenaline transporter (Homo sapiens, UniProt P23975); assay: Displacement of [3H]nisoxetine from NET
[2] = Selectivity of Muscarinic receptor M1 over DAT
[3] = Selectivity of SERT over DAT
[4] = Selectivity of NET over DAT
[5] = target: Sodium-dependent serotonin transporter (Homo sapiens, UniProt P31645); assay: Displacement of [3H]citalopram from SERT
[6] = target: T1, Muscarinic acetylcholine receptor M1 (Homo sapiens, UniProt P11229); assay: Displacement of [3H]pirenzepine from Muscarinic receptor M1
T1 sequence (P11229 whole entry): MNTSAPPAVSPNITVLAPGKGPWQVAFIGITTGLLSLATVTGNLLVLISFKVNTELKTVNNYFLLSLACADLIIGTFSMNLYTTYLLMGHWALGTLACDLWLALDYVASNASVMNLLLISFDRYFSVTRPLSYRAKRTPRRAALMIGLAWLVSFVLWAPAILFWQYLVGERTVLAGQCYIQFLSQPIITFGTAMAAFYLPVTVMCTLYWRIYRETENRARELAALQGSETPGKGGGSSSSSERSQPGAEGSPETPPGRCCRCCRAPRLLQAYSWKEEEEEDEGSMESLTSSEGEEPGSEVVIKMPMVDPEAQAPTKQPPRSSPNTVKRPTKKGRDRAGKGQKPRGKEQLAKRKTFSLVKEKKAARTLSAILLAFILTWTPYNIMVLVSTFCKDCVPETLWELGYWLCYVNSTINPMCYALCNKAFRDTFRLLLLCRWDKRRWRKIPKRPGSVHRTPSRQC

[7] = target: Sodium-dependent dopamine transporter (Rattus norvegicus, UniProt P23977); assay: Displacement of [3H]WIN-from DAT in rat brain membrane; format: cell membranes
Sodium-dependent dopamine transporter, sequence (P23977 whole entry): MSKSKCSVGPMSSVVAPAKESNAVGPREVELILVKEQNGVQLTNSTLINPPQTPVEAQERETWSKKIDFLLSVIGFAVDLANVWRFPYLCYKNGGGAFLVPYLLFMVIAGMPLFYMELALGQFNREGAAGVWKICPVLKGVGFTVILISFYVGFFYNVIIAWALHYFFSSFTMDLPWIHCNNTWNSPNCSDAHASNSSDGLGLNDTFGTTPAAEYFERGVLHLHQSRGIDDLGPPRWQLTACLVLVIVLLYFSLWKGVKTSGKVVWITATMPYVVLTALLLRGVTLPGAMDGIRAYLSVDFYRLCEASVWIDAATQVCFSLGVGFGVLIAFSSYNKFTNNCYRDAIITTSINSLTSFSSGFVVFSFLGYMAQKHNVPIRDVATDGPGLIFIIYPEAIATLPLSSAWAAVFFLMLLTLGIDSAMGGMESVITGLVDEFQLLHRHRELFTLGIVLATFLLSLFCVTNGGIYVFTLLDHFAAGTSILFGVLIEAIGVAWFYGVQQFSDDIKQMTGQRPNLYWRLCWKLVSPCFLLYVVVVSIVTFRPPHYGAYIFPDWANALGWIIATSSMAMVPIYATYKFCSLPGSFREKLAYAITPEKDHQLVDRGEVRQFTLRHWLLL

Sodium-dependent serotonin transporter, sequence (P31645 whole entry): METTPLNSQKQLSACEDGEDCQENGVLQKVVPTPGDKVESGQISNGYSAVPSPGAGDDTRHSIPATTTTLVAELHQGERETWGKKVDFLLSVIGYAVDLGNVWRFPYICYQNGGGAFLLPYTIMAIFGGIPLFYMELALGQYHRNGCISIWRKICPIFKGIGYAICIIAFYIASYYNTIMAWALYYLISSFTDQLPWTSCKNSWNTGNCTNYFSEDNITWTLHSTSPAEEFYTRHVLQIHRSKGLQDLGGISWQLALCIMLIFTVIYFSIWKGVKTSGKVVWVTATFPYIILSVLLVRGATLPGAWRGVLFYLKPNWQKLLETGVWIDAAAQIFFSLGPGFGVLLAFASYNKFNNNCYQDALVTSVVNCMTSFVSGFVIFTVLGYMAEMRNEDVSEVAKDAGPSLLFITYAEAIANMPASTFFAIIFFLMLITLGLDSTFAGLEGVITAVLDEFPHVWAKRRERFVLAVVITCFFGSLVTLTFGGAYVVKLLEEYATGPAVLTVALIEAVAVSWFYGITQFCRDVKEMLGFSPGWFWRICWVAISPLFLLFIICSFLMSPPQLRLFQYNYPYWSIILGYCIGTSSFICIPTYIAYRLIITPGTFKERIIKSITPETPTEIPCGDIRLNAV
Sodium-dependent noradrenaline transporter, sequence (P23975 whole entry): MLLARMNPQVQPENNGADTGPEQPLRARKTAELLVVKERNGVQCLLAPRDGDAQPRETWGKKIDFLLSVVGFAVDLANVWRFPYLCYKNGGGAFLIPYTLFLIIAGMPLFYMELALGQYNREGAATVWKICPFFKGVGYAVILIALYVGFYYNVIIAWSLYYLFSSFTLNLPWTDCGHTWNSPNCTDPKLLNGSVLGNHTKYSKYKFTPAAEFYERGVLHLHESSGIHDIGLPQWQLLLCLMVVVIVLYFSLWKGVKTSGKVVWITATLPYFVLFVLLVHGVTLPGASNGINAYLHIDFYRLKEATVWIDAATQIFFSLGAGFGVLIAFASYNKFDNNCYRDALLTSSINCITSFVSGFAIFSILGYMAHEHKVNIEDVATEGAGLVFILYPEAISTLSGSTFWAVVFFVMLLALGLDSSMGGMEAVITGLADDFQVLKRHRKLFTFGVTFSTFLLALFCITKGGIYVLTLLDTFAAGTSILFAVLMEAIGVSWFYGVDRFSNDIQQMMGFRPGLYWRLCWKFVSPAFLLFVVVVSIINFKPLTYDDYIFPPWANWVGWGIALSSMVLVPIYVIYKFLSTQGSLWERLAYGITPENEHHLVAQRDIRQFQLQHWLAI

| SMILES | Ki [1] [nM] | Ratio Ki [2] | Ratio Ki [3] | Ratio Ki [4] | Ki [5] [nM] | Ki [6] [nM] | Ki [7] [nM] |
| --- | --- | --- | --- | --- | --- | --- | --- |
| CN1[C@@H]2CC[C@H]1C[C@@H](NC(c1ccc(Cl)c(Cl)c1)c1ccc(Cl)c(Cl)c1)C2 | 259 | 3 | 563 | 48 | 3010 | 17.8 | – |
| C=CCN1[C@@H]2CC[C@H]1C[C@@H](NC(c1ccc(F)cc1)c1ccc(F)cc1)C2 | 5580 | 5 | 146 | 208 | 3920 | 130 | – |
| NCCN1[C@@H]2CC[C@H]1C[C@@H](NC(c1ccc(F)cc1)c1ccc(F)cc1)C2 | 3550 | 169 | – | – | 10900 | 2110 | – |
| Fc1ccc(C(N[C@H]2C[C@H]3CC[C@@H](C2)N3)c2ccc(F)cc2)cc1 | 997 | 18 | 491 | 118 | 4150 | 154 | – |
| CN1[C@@H]2CC[C@H]1C[C@@H](NC(c1ccc(F)cc1)c1ccc(F)cc1)C2 | 1810 | 0.7 | 769 | 160 | 8680 | 7.81 | – |
| CN1[C@@H]2CC[C@H]1C[C@@H](NC(c1ccc(Cl)cc1)c1ccc(Cl)cc1)C2 | 7580 | – | – | – | 4180 | 50 | – |
| Fc1ccc(C(N[C@H]2C[C@H]3CC[C@@H](C2)N3CCCCc2ccccc2)c2ccc(F)cc2)cc1 | 1630 | 37 | 43 | 139 | 502 | 438 | – |
| CN1[C@@H]2CC[C@H]1C[C@@H](NC(c1ccccc1)c1ccc(Cl)cc1)C2 (stereo partly specified) | 3170 | 0.3 | 373 | 87 | 13600 | 9.3 | – |
| NCCN1[C@@H]2CC[C@H]1C[C@@H](OC(c1ccc(F)cc1)c1ccc(F)cc1)C2 | – | – | – | – | – | – | 5.59 |
| CCCCN1[C@@H]2CC[C@H]1C[C@@H](NC(c1ccc(F)cc1)c1ccc(F)cc1)C2 | 2920 | 21 | 123 | 136 | 2640 | 454 | – |
| CN1[C@@H]2CC[C@H]1C[C@H](NC(c1ccc(F)cc1)c1ccc(F)cc1)C2 | 152000 | 0.1 | 73 | 230 | 48500 | 59.4 | – |
| CN(C(c1ccc(F)cc1)c1ccc(F)cc1)[C@H]1C[C@H]2CC[C@@H](C1)N2C | 8410 | 0.2 | 140 | 68 | 17200 | 18.6 | – |
| Fc1ccc(C(N[C@H]2C[C@H]3CC[C@@H](C2)N3CCc2c[nH]c3ccccc23)c2ccc(F)cc2)cc1 | 8250 | – | – | – | 347 | 413 | – |
| O=C(CCN1[C@@H]2CC[C@H]1C[C@@H](NC(c1ccc(F)cc1)c1ccc(F)cc1)C2)Nc1ccccc1 | 2470 | 551 | 132 | 536 | 608 | 2540 | – |
| CN1C2CCC1CC(OC(c1ccc(F)cc1)c1ccc(F)cc1)C2 (stereo unspecified) [DIFLUOROBENZTROPINE] | 844 | – | – | – | 3260 | 11.6 | – |
| O=C(CCN1[C@@H]2CC[C@H]1C[C@@H](OC(c1ccc(F)cc1)c1ccc(F)cc1)C2)Nc1ccccc1 | – | – | – | – | – | – | 6.22 |
| Fc1ccc(C(O[C@H]2C[C@H]3CC[C@@H](C2)N3CCc2c[nH]c3ccccc23)c2ccc(F)cc2)cc1 | – | – | – | – | – | – | 29.2 |
